# From ChEMBL document CHEMBL1201862, “PubChem BioAssay data set” (2004)
#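 Tested at 5 concentrations; 48 h exposure; 96-well plates; endpoints linearly interpolated, else capped at highest concentration. GI50 = concentration required for 50% inhibition of growth.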 The source made the active and inactive calls. Cut-off read from the data, not from the text of the source: active = GI50 up to about 1.1 µM and inactive = higher.
# Columns and labels:
# Assay in all cases: inhibition of tumour cell growth, NCI panel, 48 h
# SNB-19 = test system: SNB-19
# SK-MEL-5 = test system: SK-MEL-5
# HOP-92 = test system: HOP-92
# MCF7 = test system: MCF7
# EKVX = test system: EKVX
# SK-OV-3 = test system: SK-OV-3
# MDA-MB-435 = test system: MDA-MB-435
# CCRF-CEM = test system: CCRF-CEM
# MDA-MB-231 = test system: MDA-MB-231
# SR = test system: SR
# MOLT-4 = test system: MOLT-4
# SN12C = test system: SN12C
# MDA-N = test system: MDA-N
# NCI-H23 = test system: NCI-H23
# SK-MEL-2 = test system: SK-MEL-2
# OVCAR-3 = test system: OVCAR-3
# UACC-62 = test system: UACC-62
# SF-295 = test system: SF-295
# COLO 205 = test system: COLO 205
# SW-620 = test system: SW-620
SMILES,GI50 (SNB-19),GI50 (SK-MEL-5),GI50 (HOP-92),GI50 (MCF7),GI50 (EKVX),GI50 (SK-OV-3),GI50 (MDA-MB-435),GI50 (CCRF-CEM),GI50 (MDA-MB-231),GI50 (SR),GI50 (MOLT-4),GI50 (SN12C),GI50 (MDA-N),GI50 (NCI-H23),GI50 (SK-MEL-2),GI50 (OVCAR-3),GI50 (UACC-62),GI50 (SF-295),GI50 (COLO 205),GI50 (SW-620)
Cc1nn(-c2ccccc2)c2c1C(c1cc3ccccc3nc1Cl)NC(=S)N2 (stereo not given),57.3 µM (inactive),58.6 µM (inactive),18.2 µM (inactive),38 µM (inactive),92.7 µM (inactive),97.5 µM (inactive),29 µM (inactive),31.9 µM (inactive),> 100 µM (inactive),44.6 µM (inactive),29.4 µM (inactive),78.3 µM (inactive),45.7 µM (inactive),67.3 µM (inactive),14.5 µM (inactive),54 µM (inactive),76.7 µM (inactive),43.4 µM (inactive),> 100 µM (inactive),30.1 µM (inactive)
CC1=CC(=O)CC(C)(C)C1(O)/C=C/C(C)=C/C(=O)O (stereo not given),> 100 µM (inactive),> 100 µM (inactive),> 100 µM (inactive),> 100 µM (inactive),> 100 µM (inactive),> 100 µM (inactive),> 100 µM (inactive),> 100 µM (inactive),> 100 µM (inactive),> 100 µM (inactive),> 100 µM (inactive),> 100 µM (inactive),> 100 µM (inactive),> 100 µM (inactive),> 100 µM (inactive),> 100 µM (inactive),> 100 µM (inactive),> 100 µM (inactive),> 100 µM (inactive),> 100 µM (inactive)
CC(C)NC(=O)OCc1c(COC(=O)NC(C)C)c(-c2cc[n+](COC(=O)C(C)C)cc2)n2c1CCC2,> 100 µM (inactive),> 100 µM (inactive),69.7 µM (inactive),64.4 µM (inactive),> 100 µM (inactive),98.4 µM (inactive),> 100 µM (inactive),39.9 µM (inactive),> 100 µM (inactive),> 25.2 µM (inactive),> 46.9 µM (inactive),62.1 µM (inactive),> 100 µM (inactive),> 90.4 µM (inactive),> 100 µM (inactive),> 100 µM (inactive),48.9 µM (inactive),> 83.2 µM (inactive),> 100 µM (inactive),> 100 µM (inactive)
Cc1cccc(-c2cc(O)c3c(C)cc(C)nc3n2)c1,4.38 µM (inactive),1.05 µM (active),35.4 µM (inactive),0.962 µM (active),22 µM (inactive),2.24 µM (inactive),0.321 µM (active),3.45 µM (inactive),5.7 µM (inactive),0.38 µM (active),5.06 µM (inactive),8.91 µM (inactive),0.313 µM (active),3.65 µM (inactive),2.73 µM (inactive),1.43 µM (inactive),4.14 µM (inactive),2.72 µM (inactive),1.04 µM (active),0.792 µM (active)
COC(=O)c1sc2ncc3c(c2c1N)CC(C)CC3 (stereo not given),> 100 µM (inactive),> 100 µM (inactive),> 100 µM (inactive),> 100 µM (inactive),> 100 µM (inactive),> 100 µM (inactive),> 100 µM (inactive),> 100 µM (inactive),> 100 µM (inactive),> 100 µM (inactive),> 100 µM (inactive),> 100 µM (inactive),> 100 µM (inactive),> 100 µM (inactive),> 100 µM (inactive),> 100 µM (inactive),> 100 µM (inactive),> 100 µM (inactive),> 100 µM (inactive),> 100 µM (inactive)
O=C(Nc1ccc2ncccc2c1)Nc1ccc2ncccc2c1,> 100 µM (inactive),> 100 µM (inactive),> 100 µM (inactive),> 100 µM (inactive),> 100 µM (inactive),> 100 µM (inactive),> 100 µM (inactive),> 100 µM (inactive),> 100 µM (inactive),> 100 µM (inactive),> 100 µM (inactive),> 100 µM (inactive),> 100 µM (inactive),> 100 µM (inactive),> 100 µM (inactive),> 100 µM (inactive),> 100 µM (inactive),> 100 µM (inactive),> 100 µM (inactive),> 100 µM (inactive)
O=S(=O)(O)c1ccc(/N=N/c2ccc(/N=N/c3c(O)ccc4ccccc34)cc2)cc1,> 100 µM (inactive),> 91.8 µM (inactive),> 100 µM (inactive),> 100 µM (inactive),> 100 µM (inactive),> 100 µM (inactive),> 100 µM (inactive),> 51.3 µM (inactive),> 100 µM (inactive),4.76 µM (inactive),> 100 µM (inactive),> 100 µM (inactive),> 100 µM (inactive),> 94.2 µM (inactive),> 100 µM (inactive),> 100 µM (inactive),> 100 µM (inactive),> 100 µM (inactive),> 100 µM (inactive),> 100 µM (inactive)
CCOC(=O)CC1(Cc2ccc(OCc3ccccc3)cc2)C(=O)OC(c2ccccc2)N1C(=O)c1ccccc1 (stereo not given),> 100 µM (inactive),> 100 µM (inactive),> 100 µM (inactive),> 100 µM (inactive),> 100 µM (inactive),> 100 µM (inactive),> 100 µM (inactive),> 100 µM (inactive),68.9 µM (inactive),> 100 µM (inactive),> 100 µM (inactive),> 100 µM (inactive),> 100 µM (inactive),> 100 µM (inactive),> 100 µM (inactive),> 100 µM (inactive),> 100 µM (inactive),> 100 µM (inactive),> 100 µM (inactive),> 100 µM (inactive)
CC(=O)O[C@H]1CC[C@@]2(C)C(=CC[C@@H]3[C@@H]2CC[C@]2(C)C(=N/O)/C(=C\c4ccccc4)C[C@@H]32)C1,> 55 µM (inactive),2.08 µM (inactive),41.1 µM (inactive),13 µM (inactive),4.86 µM (inactive),28.9 µM (inactive),3.89 µM (inactive),17.7 µM (inactive),20.5 µM (inactive),3.27 µM (inactive),3.08 µM (inactive),14.8 µM (inactive),4.71 µM (inactive),16.3 µM (inactive),13 µM (inactive),11.3 µM (inactive),5.94 µM (inactive),14.8 µM (inactive),10.6 µM (inactive),20.9 µM (inactive)
O=P1(c2ccccc2)C(c2ccccc2)=CC=C1c1ccccc1,> 100 µM (inactive),6.24 µM (inactive),12.1 µM (inactive),10.4 µM (inactive),24.2 µM (inactive),59.4 µM (inactive),12.4 µM (inactive),12.3 µM (inactive),36.7 µM (inactive),11.9 µM (inactive),6.65 µM (inactive),39.2 µM (inactive),10.8 µM (inactive),21.5 µM (inactive),11.3 µM (inactive),12.2 µM (inactive),18.8 µM (inactive),28.4 µM (inactive),15 µM (inactive),26.1 µM (inactive)
